The values that follow come from the supplement of paper PMC10307832.

Holding throughout (experiment): relative viability (nuclei count vs DMSO), 5 days (fraction); higher = more cells survive
Compound in the assay “Wnt-C59 + Tozasertib”: CC1=NC=CC(=C1)C2=CC=C(C=C2)CC(=O)NC3=CC=C(C=C3)C4=CN=CC=C4 [Wnt-C59] + Cc1cc(Nc2cc(N3CCN(C)CC3)nc(Sc3ccc(NC(=O)C4CC4)cc3)n2)n[nH]1 [Tozasertib] (partner 0.1 µM)
A digest of the protocol: (§1)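 Cells from lung cancer lines were seeded into 1536-well plates and, one day later, dosed by pin tool. Treatments were either a single drug or a fixed dose of an anchor drug with five library-drug doses (not always all listed) in √10 steps. After 5 days, nuclei were stained in a one-step fixation (final 0.05% Triton X-100, 1% formaldehyde, 1 ug/ml Hoechst) and counted on 4× images, and relative viability is the treated-to-vehicle nuclei ratio, as the median of duplicate plates.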

Compound in the assay “Wnt-C59 + Pemetrexed”: CC1=NC=CC(=C1)C2=CC=C(C=C2)CC(=O)NC3=CC=C(C=C3)C4=CN=CC=C4 [Wnt-C59] + Nc1nc2[nH]cc(CCc3ccc(C(=O)N[C@@H](CCC(=O)O)C(=O)O)cc3)c2c(=O)[nH]1 [Pemetrexed] (partner 0.2 µM)
A digest of the protocol: as §1

Compound in the assay “Wnt-C59 + Vorinostat”: CC1=NC=CC(=C1)C2=CC=C(C=C2)CC(=O)NC3=CC=C(C=C3)C4=CN=CC=C4 [Wnt-C59] + O=C(CCCCCCC(=O)Nc1ccccc1)NO [Vorinostat] (partner 1 µM)
A digest of the protocol: as §1

Compound in the assay “Lapatinib + OSI-027”: CS(=O)(=O)CCNCc1ccc(-c2ccc3ncnc(Nc4ccc(OCc5cccc(F)c5)c(Cl)c4)c3c2)o1 [Lapatinib] + COc1cccc2cc(-c3nc([C@H]4CC[C@H](C(=O)O)CC4)n4ncnc(N)c34)[nH]c12 [OSI-027] (partner 0.5 µM)
The method in brief: as §1

As for UMC-11, the relative viability with Wnt-C59 + Tozasertib (first compound 0.001 µM) was 0.214; in the assay with Wnt-C59 + Tozasertib (first compound 0.01 µM), 0.197; with Wnt-C59 + Tozasertib (first compound 0.03162 µM), 0.203; with Wnt-C59 + Tozasertib (first compound 0.1 µM), 0.226; in the assay with Wnt-C59 + Pemetrexed (first compound 0.001 µM), 0.756; with Wnt-C59 + Pemetrexed (first compound 0.01 µM) it was 0.821. Moreover, the relative viability with Wnt-C59 + Pemetrexed (first compound 0.03162 µM) turned out to be 0.874; with Wnt-C59 + Pemetrexed (first compound 0.1 µM), 0.76; with Wnt-C59 + Vorinostat (first compound 0.001 µM), 0.445; in the assay with Wnt-C59 + Vorinostat (first compound 0.01 µM), 0.418; in the assay with Wnt-C59 + Vorinostat (first compound 0.03162 µM), 0.339; with Wnt-C59 + Vorinostat (first compound 0.1 µM), 0.422. The relative viability with Lapatinib + OSI-027 (first compound 0.02 µM) amounted to 0.461; in the assay with Lapatinib + OSI-027 (first compound 0.06325 µM), 0.427; with Lapatinib + OSI-027 (first compound 0.2 µM) it was 0.582; with Lapatinib + OSI-027 (first compound 0.6325 µM), 0.464; with Lapatinib + OSI-027 (first compound 2 µM), 0.465.
